Test results reported in the NIST ThermoML archive (doi:10.1021/je0340046).
Where “and” joins values, the source holds several entries; their conditions need not be identical. Equal values may be shown once. ± gives the expanded uncertainty stated by the source.

Conditions: Liquid, Closed cell (Static) method

COC [dimethyl ether]
vapor or sublimation pressure (233.13 K): 54.61 ± 1.4 kPa | vapor or sublimation pressure (238.13 K): 68.49 ± 1.4 kPa | vapor or sublimation pressure (243.16 K): 85.57 ± 1.4 kPa | vapor or sublimation pressure (248.15 K): 105.59 ± 1.4 kPa | vapor or sublimation pressure (253.15 K): 129.42 ± 1.4 kPa | vapor or sublimation pressure (258.16 K): 157.53 ± 1.4 kPa | vapor or sublimation pressure (263.16 K): 190.44 ± 1.4 kPa | vapor or sublimation pressure (268.16 K): 228.48 ± 1.4 kPa | vapor or sublimation pressure (273.15 K): 272.17 ± 1.5 kPa | vapor or sublimation pressure (278.14 K): 321.87 ± 1.5 kPa | vapor or sublimation pressure (283.16 K): 378.66 ± 1.5 kPa | vapor or sublimation pressure (288.17 K): 443.57 ± 1.5 kPa | vapor or sublimation pressure (293.16 K): 515.53 ± 1.6 kPa | vapor or sublimation pressure (298.17 K): 596.21 ± 1.6 kPa | vapor or sublimation pressure (303.16 K): 687.37 ± 1.7 kPa | vapor or sublimation pressure (305.16 K): 726.26 ± 1.8 kPa | vapor or sublimation pressure (308.16 K): 787.07 ± 1.8 kPa | vapor or sublimation pressure (313.16 K): 897.59 ± 1.9 kPa | vapor or sublimation pressure (316.15 K): 968.55 ± 2 kPa | vapor or sublimation pressure (318.16 K): 1018.9 ± 2 kPa | vapor or sublimation pressure (323.15 K): 1152.3 ± 2.2 kPa | vapor or sublimation pressure (328.15 K): 1298.2 ± 2.3 kPa | vapor or sublimation pressure (333.16 K): 1457.5 ± 2.5 kPa and 1457.8 ± 2.5 kPa | vapor or sublimation pressure (338.15 K): 1631 ± 2.7 kPa | vapor or sublimation pressure (343.15 K): 1818.8 ± 3 kPa | vapor or sublimation pressure (348.15 K): 2022.5 ± 3.2 kPa | vapor or sublimation pressure (353.15 K): 2242.7 ± 3.5 kPa | vapor or sublimation pressure (353.16 K): 2243.1 ± 3.5 kPa | vapor or sublimation pressure (358.14 K): 2479.9 ± 3.9 kPa | vapor or sublimation pressure (363.15 K): 2735.7 ± 4.3 kPa | vapor or sublimation pressure (368.16 K): 3010.8 ± 4.7 kPa | vapor or sublimation pressure (373.15 K): 3305.7 ± 5.2 kPa | vapor or sublimation pressure (378.15 K): 3622.6 ± 5.7 kPa | vapor or sublimation pressure (383.14 K): 3962.2 ± 6.2 kPa | vapor or sublimation pressure (388.15 K): 4331.5 ± 6.8 kPa | vapor or sublimation pressure (393.16 K): 4725 ± 7.4 kPa | vapor or sublimation pressure (398.16 K): 5146.8 ± 8 kPa | vapor or sublimation pressure (400.38 K): 5355.8 ± 8.4 kPa
